From patent US6664250B2, “Lactam derivatives as antiarrhythmic agents” (Bristol-Myers Squibb Co., priority 1998, dated 2003)
Where a name gives a salt, the structure may show the parent alone.

Compound | melting point
OCC1c2ccc(OCc3ccccc3)cc2CCN1CCN1CCC(c2ccccc2)CC1 (stereo not shown) (as salt: hydrochloride) | 205 to 210 °C (dec.)
COc1ccc2c(c1)CCN(CCN1CCC(c3ccccc3)CC1)C2=O (as salt: hydrochloride) [Example 1, 3,4-Dihydro-6-methoxy-2-[2-(4-phenyl-1-piperidinyl)ethyl]-1(2H)-isoquinolinone, Monohydrochloride] | 232 to 235 °C
COc1ccc2c(c1)CCC(C)(CN1CCC(c3ccccc3)CC1)NC2=O (stereo not shown) [Example 5, 2,3,4,5-Tetrahydro-7-methoxy-3-methyl-3-[(4-phenyl-1-piperidinyl)methyl]-1H-2-benzazepin-1-one] | 127 to 128 °C
CCCOc1ccc2c(c1)C(=O)NC(CC(C)(C)C)CC2 (stereo not shown) [Example 22] | 132 to 133 °C
CCCOc1ccc2c(c1)NC(=O)C(CC(C)(C)C)CC2 (stereo not shown) [Example 24] | 117 to 119 °C
CC(C)COc1ccc2c(c1)C(=O)NC(CC(C)(C)C)CC2 (stereo not shown) [Example 27] | 148 to 149 °C
CCOc1ccc2c(c1)NC(=O)C(CC(C)(C)C)CC2 (stereo not shown) [Example 28] | 136 to 138 °C
CCOc1ccc2c(c1)C(=O)NC(CC(C)(C)C)C2 (stereo not shown) [Example 30] | 129 to 130 °C
CCCOc1ccc2c(c1)C(=O)NC(CC(C)(C)C)C2 (stereo not shown) [Example 31] | 88 to 90 °C
CC(C)COc1ccc2c(c1)C(=O)NC(CC(C)(C)C)C2 (stereo not shown) [Example 32] | 142 to 143 °C
CC(C)Oc1ccc2c(c1)NC(=O)C(CC(C)(C)C)CC2 (stereo not shown) [Example 34] | 132 to 134 °C
COc1ccc2c(c1)C(=O)NC(CC(C)(C)C)C2 (stereo not shown) [Example 38] | 113 to 114 °C

Next, values leading:

melting point | Compound
93 to 95 °C | COc1ccc2c(c1)CC(C)(CN1CCC(c3ccccc3)CC1)NC2=O (stereo not shown) [Example 6]
159 to 160 °C | CCOc1ccc2c(c1)C(=O)NC(CC(C)(C)C)CC2 (stereo not shown) [Example 21]
142 to 143 °C | CC(C)(C)CC1CCc2ccc(OCc3ccccc3)cc2C(=O)N1 (stereo not shown) [Example 23]
139 to 140 °C | CC(C)(C)CC1Cc2ccc(OCc3ccccc3)cc2C(=O)N1 (stereo not shown) [Example 25]
150 to 151 °C | CC(C)(C)CC1CCc2ccc(OCc3ccccc3)cc2NC1=O (stereo not shown) [Example 26]
113 to 114 °C | CC(C)Oc1ccc2c(c1)C(=O)NC(CC(C)(C)C)CC2 (stereo not shown) [Example 29]
139 to 140 °C | CC(C)COc1ccc2c(c1)NC(=O)C(CC(C)(C)C)CC2 (stereo not shown) [Example 33]
109 to 110 °C | CCCOc1ccc2c(c1)NC(=O)C(CC(C)(C)C)C2 (stereo not shown) [Example 36]
135 to 136 °C | CC(C)Oc1ccc2c(c1)C(=O)NC(CC(C)(C)C)C2 (stereo not shown) [Example 37]
118 to 119 °C | COc1ccc2c(c1)NC(=O)C(CC(C)(C)C)C2 (stereo not shown) [Example 37]
